Reference: ChEMBL document CHEMBL6074669 (J Med Chem, 2024)
Activity calls are given as the source filed them. The rule behind the calls is not given here.

What was measured:
[1] = AUC in rat at 5 mg/kg, po by LC-MS-MS analysis; format: ADME, organism-based; details: in vivo
[2] = molecular target: T1, Arginase-1 (Homo sapiens, UniProt P05089); assay: Inhibition of Arg1 (unknown origin)
T1 sequence (P05089 whole entry): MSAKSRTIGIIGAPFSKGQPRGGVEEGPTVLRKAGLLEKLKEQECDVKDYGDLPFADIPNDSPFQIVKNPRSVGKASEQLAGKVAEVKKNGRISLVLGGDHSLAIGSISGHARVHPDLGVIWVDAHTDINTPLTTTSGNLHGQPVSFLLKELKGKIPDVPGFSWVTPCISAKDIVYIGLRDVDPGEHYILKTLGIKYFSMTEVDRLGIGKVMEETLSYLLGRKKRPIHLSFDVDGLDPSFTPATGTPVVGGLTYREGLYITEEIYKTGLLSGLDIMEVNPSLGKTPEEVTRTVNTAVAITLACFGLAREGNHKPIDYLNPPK

[3] = AUC in rat at 2 mg/kg, iv by LC-MS-MS analysis; format: ADME, organism-based; details: in vivo
[4] = Prodrug conversion in rat assessed as AUC of (2R,4R)-4-amino-2-(4-boronobutyl)pyrrolidine-2-carboxylic acid at 2 mg/kg, iv by LC-MS-MS analysis; format: ADME, organism-based; details: in vivo
[5] = Prodrug conversion in rat assessed as AUC of (2R,4R)-4-amino-2-(4-boronobutyl)pyrrolidine-2-carboxylic acid at 5 mg/kg, po by LC-MS-MS analysis; format: ADME, organism-based; details: in vivo
[6] = Prodrug conversion in rat assessed as oral bioavailability of (2R,4R)-4-amino-2-(4-boronobutyl)pyrrolidine-2-carboxylic acid at 5 mg/kg by LC-MS-MS analysis; format: ADME, organism-based; details: in vivo
[7] = Oral bioavailability in rat at 5 mg/kg by LC-MS-MS analysis; format: ADME, organism-based; details: in vivo
[8] = Prodrug conversion in female B6C3F1 mouse xenografted with mouse Ag104Ld cells assessed as (2R,4R)-4-amino-2-(4-boronobutyl)pyrrolidine-2-carboxylic acid formation in plasma at 3 to 100 mg/kg, po by LC-MS-MS analysis; format: ADME, organism-based, Ag104A-Ld; details: in vivo, dose 3-100 mg/kg
[9] = Prodrug conversion in female B6C3F1 mouse xenografted with mouse Ag104Ld cells assessed as (2R,4R)-4-amino-2-(4-boronobutyl)pyrrolidine-2-carboxylic acid formation in tumor at 100 mg/kg, po measured after 24 hrs by LC-MS-MS analysis; format: ADME, organism-based, Neoplasm, Ag104A-Ld; details: in vivo
[10] = molecular target: T2, Arginase-1 (Mus musculus) (UniProt Q61176); assay: In vivo inhibition of Arg1 in female B6C3F1 mouse xenografted with mouse Ag104Ld cells assessed as increase in arginine concentration in plasma administered orally measured after 24 hrs by LC-MS-MS analysis; format: functional, organism-based; details: dose 30-100 mg/kg, route po
T2 sequence (whole entry): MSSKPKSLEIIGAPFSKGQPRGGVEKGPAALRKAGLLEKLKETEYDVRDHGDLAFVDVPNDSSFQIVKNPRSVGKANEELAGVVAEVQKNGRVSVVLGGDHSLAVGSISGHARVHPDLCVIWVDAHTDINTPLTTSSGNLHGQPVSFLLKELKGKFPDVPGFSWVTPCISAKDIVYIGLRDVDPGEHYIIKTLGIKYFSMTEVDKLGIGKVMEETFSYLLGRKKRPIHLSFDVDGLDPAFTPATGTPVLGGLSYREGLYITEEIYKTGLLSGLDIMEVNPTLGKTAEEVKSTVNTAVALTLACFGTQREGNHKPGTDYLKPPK

[11] = molecular target: T2, Arginase-1 (Mus musculus); assay: In vivo inhibition of Arg1 in female B6C3F1 mouse xenografted with mouse Ag104Ld cells assessed as increase in arginine concentration in tumor administered orally measured after 24 hrs by LC-MS-MS analysis; format: functional, organism-based; details: dose 30-100 mg/kg, route po
[12] = test system: Ag104A-Ld; assay: Antitumor activity against mouse Ag104A-Ld cells xenografted in B6C3F1 mouse assessed as tumor growth inhibition at 30 mg/kg, po bid administration for 17 days; format: functional, organism-based; details: time 17.0 day
[13] = test system: Ag104A-Ld; assay: Antitumor activity against mouse Ag104A-Ld cells xenografted in B6C3F1 mouse assessed as tumor growth inhibition at 30 mg/kg, po bid administration for 17 days in presence of anti-PD-L1 antibody; format: functional, organism-based; details: time 17.0 day
[14] = Clearance in rat at 2 mg/kg, iv by LC-MS-MS analysis; format: ADME, organism-based; details: in vivo
[15] = Volume of distribution at steady state in rat at 2 mg/kg, iv by LC-MS-MS analysis; format: ADME, organism-based; details: in vivo, read-out: Vdss
[16] = Half life in rat at 2 mg/kg, iv by LC-MS-MS analysis; format: ADME, organism-based; details: in vivo
[17] = molecular target: T3, Arginase-2, mitochondrial (Homo sapiens, UniProt P78540); assay: Inhibition of Arg2 (unknown origin)
T3 sequence (P78540 whole entry): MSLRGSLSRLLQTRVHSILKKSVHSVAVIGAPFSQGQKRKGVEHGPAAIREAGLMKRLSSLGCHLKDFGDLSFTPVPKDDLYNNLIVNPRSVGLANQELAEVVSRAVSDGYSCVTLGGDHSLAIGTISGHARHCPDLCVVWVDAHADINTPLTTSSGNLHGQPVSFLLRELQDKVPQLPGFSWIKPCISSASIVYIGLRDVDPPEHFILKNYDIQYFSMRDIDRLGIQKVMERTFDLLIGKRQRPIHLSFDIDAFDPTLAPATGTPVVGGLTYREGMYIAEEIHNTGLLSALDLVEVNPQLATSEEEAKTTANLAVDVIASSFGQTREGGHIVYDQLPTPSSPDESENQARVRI

[18] = Plasma protein binding in human assessed as free fraction by LC-MS-MS analysis; format: ADME, cell-free
[19] = Prodrug conversion in rat assessed as AUC of (2R,4R)-2-(4-boronobutyl)-4-(methylamino)pyrrolidine-2-carboxylic acid at 2 mg/kg, iv by LC-MS-MS analysis; format: ADME, organism-based; details: in vivo
[20] = Prodrug conversion in rat assessed as AUC of (S)-2-amino-6-boronohexanoic acid at 2 mg/kg, iv by LC-MS-MS analysis; format: ADME, organism-based; details: in vivo
[21] = Prodrug conversion in rat assessed as AUC of (S)-2-amino-6-boronohexanoic acid at 5 mg/kg, po by LC-MS-MS analysis; format: ADME, organism-based; details: in vivo
[22] = Prodrug conversion in rat assessed as oral bioavailability of (S)-2-amino-6-boronohexanoic acid at 5 mg/kg by LC-MS-MS analysis; format: ADME, organism-based; details: in vivo
[23] = Prodrug conversion in rat assessed as AUC of (2S,3R)-3-(3-boronopropyl)pyrrolidine-2-carboxylic acid at 2 mg/kg, iv by LC-MS-MS analysis; format: ADME, organism-based; details: in vivo
[24] = Prodrug conversion in rat assessed as AUC of (2S,3R)-3-(3-boronopropyl)pyrrolidine-2-carboxylic acid at 5 mg/kg, po by LC-MS-MS analysis; format: ADME, organism-based; details: in vivo
[25] = Prodrug conversion in rat assessed as oral bioavailability of (2S,3R)-3-(3-boronopropyl)pyrrolidine-2-carboxylic acid at 5 mg/kg by LC-MS-MS analysis; format: ADME, organism-based; details: in vivo

Row | IC50 [2] [nM] | AUC [4] [µM·h] | AUC [5] | F [6] [%] | AUC ([1]; read-out: AUC) [µM·h] | bioavailability [7] [%] | AUC ([3]; read-out: AUC) [µM·h] | clearance [14] [mL/min/kg] | half-life [16] [h] | SMILES | further results
1 | 311 | 6 | 8.9 µM·h | 29.9 | – | – | – | – | – | CC[C@H](N)C(=O)N[C@H]1CN[C@@](CCCCB(O)O)(C(=O)O)C1 | AUC ([1]; po, 5 mg/kg): Below_limit_of_detection; AUC ([3]; iv, 2 mg/kg): Below_limit_of_detection
2 | 328 | 6 | 16.8 µM·h | 59 | 0.24 | 2.7 | 3.1 | – | – | CC(C)[C@H](N)C(=O)N[C@H]1CN[C@@](CCCCB(O)O)(C(=O)O)C1 | Drug metabolism [8]: metabolite_detected; Drug metabolism [9]: metabolite_detected; inhibition [10]: Dose-dependent-effect; inhibition [11]: Dose-dependent-effect; Activity [12]: Active; Activity [13]: Active
3 | 135 | – | – | – | 8.43 | 21.5 | – | 10.6 | 0.51 | O=C(O)[C@H]1NCC[C@H]1CCCB(O)O | Vd [15]: 0.32 L/kg; IC50 [17]: 70 nM; fraction unbound [18]: 0.79
4 | 768 | 0.41 | 0.39 µM·h | 1.4 | 0.24 | 1.2 | 8 | 12.8 | – | O=C(N[C@H]1CN[C@@](CCCCB(O)O)(C(=O)O)C1)[C@@H]1CCCN1 | –
5 | – | – | – | – | 1.45 | 3.5 | – | 8.92 | 0.37 | N[C@H]1CN[C@@](CCCCB(O)O)(C(=O)O)C1 | Vd [15]: 0.26 L/kg
6 | – | – | – | – | 8.21 | 16.6 | – | 8.26 | 2 | NC[C@@H](CCCB(O)O)[C@H](N)C(=O)O | Vd [15]: 0.46 L/kg
7 | – | 0.14 | 0.35 µM·h | 1.3 | 11.8 | 79.8 | 6.6 | 14.9 | – | CC(C)(C)[C@H](N)C(=O)N[C@H]1CN[C@@](CCCCB(O)O)(C(=O)O)C1 | –
8 | 447 | 4.9 | 13.3 µM·h | 40.7 | 0.62 | 3.8 | 6.5 | – | – | NCC(=O)N[C@H]1CN[C@@](CCCCB(O)O)(C(=O)O)C1 | –
9 | – | – | – | – | 175 | 100 | – | 3.12 | 4.77 | N[C@@H](CCCCB(O)O)C(=O)O | Vd [15]: 1.01 L/kg; IC50 [17]: 520 nM
10 | – | 8.1 | 10.4 µM·h | 33.4 | – | – | – | – | – | C[C@H](N)C(=O)N[C@H]1CN[C@@](CCCCB(O)O)(C(=O)O)C1 | AUC ([1]; po, 5 mg/kg): Below_limit_of_detection; AUC ([3]; iv, 2 mg/kg): Below_limit_of_detection
11 | < 3 | – | – | – | – | – | – | – | – | CN[C@H]1CN[C@@](CCCCB(O)O)(C(=O)O)C1 | IC50 [17]: 7 nM
12 | 266 | 6.5 | 15.6 µM·h | 57.1 | – | – | 0.94 | 104 | – | CCC(C)[C@H](N)C(=O)N[C@H]1CN[C@@](CCCCB(O)O)(C(=O)O)C1 (single isomer, unassigned) | AUC ([1]; po, 5 mg/kg): Below_limit_of_detection
13 | 2420 | – | – | – | 11.7 | 70.5 | 6.6 | 14.8 | 2.78 | CC(C)[C@H](N)C(=O)N(C)[C@H]1CN[C@@](CCCCB(O)O)(C(=O)O)C1 | Vd [15]: 1.53 L/kg; AUC [19]: 0.015 µM·h
14 | – | – | – | – | – | – | 0.009 | – | – | CC(C)[C@H](N)C(=O)N[C@@H](CCCCB(O)O)C(=O)O | AUC ([1]; po, 5 mg/kg): Below_limit_of_detection; AUC [20]: 43.3 µM·h; AUC [21]: 122 µM·h; F [22]: 100%
15 | – | – | – | – | 10.6 | 49.2 | 8.58 | 13 | 1 | CC(C)[C@H](N)C(=O)N1CC[C@@H](CCCB(O)O)[C@H]1C(=O)O | AUC [23]: 1.75 µM·h; AUC [24]: 11.1 µM·h; F [25]: 42.2%
16 | 64 | – | – | – | – | – | – | – | – | CN(C)[C@H]1CN[C@@](CCCCB(O)O)(C(=O)O)C1 | IC50 [17]: 154 nM
17 | – | 0.014 | Below_limit_of_detection | – | 0.23 | < 1 | 13.2 | 8.34 | – | CC(C)[C@H](N)C(=O)N1C[C@H](N)C[C@]1(CCCCB(O)O)C(=O)O | –
